Experimental findings from patent publication US11497717B2, “Nanoparticles for use for treating a neuronal disorder” (NANOBIOTIX S.A., priority 2017, dated 2022) are described below.

In assay [1] the test system is amyloid beta 1-42 (Abeta 1-42)-induced model of Alzheimer's disease in frontal cortex cultures of mouse neurons. Briefly: Rescue of amyloid beta 1-42-induced functional effects on neuronal networks, phenotypic MEA screening (Example 8). The class given is cell-based.
Assay [2] relates to MPP^+-treated mouse ventral midbrain/cortex co-cultures. The assay can be described thus: Prevention/rescue efficacy on MPP+-induced neuronal networks, phenotypic MEA screening (Example 7). Type of assay: cell-based. As for the experimental part:
The prevention/rescue efficacy of nanoparticles of the invention was tested on MPP^+-treated mouse ventral midbrain/cortex co-cultures, cultured on a 48-wells MEA for 3 weeks. This model represents an in vitro Parkinson's model for screening compounds, based on the functional rescue of dopaminergic neurons using challenged midbrain/cortex cultures growing on MEAs. Midbrain is a region of the brain including the substantia nigra which is part of the basal ganglia and which contains most of the dopaminergic neurons. The evaluation of the nanoparticles' prevention/rescue effect was performed via the measurement of the extracellular electrical activity of the co-culture of neurons plated on Microelectrode Array (MEA) chips. […]
Midbrain and frontal cortex tissue was harvested from embryonic day 14.5 chr:NMRI mice (Charles River). […] Tissue was dissociated by enzymatic digestion (133.3 Kunitz units/ml DNase; 10 Units/ml Papain) and mechanical trituration, counted, vitality controlled, and plated in a 20 μl drop of DMEM containing laminin (10 μg/ml), 10% fetal bovine serum and 10% horse serum on MEAs. Cultures on MEAs were incubated at 37° C. in a 10% CO2 atmosphere until ready for use. […]
At day 21, 120 minutes of neuronal activity were recorded, and 30 minutes of stable activity were analyzed (FIG. 6). […]
Each unit represents the activity originating from one neuron recorded at one electrode. […]

As for `COc1cc2c(cc1OC)C(=O)C(CC1CCN(Cc3ccccc3)CC1)C2` (stereo not shown) [Donepezil, donepezil], the “Effect Score” value in assay [1] (Abeta 1-42 100 nM at T0, nanoparticles (800 μM; [BaTiO3]=2000 μM) or donepezil 300 nM at T0+4 h, Control=0, Abeta group=1, 15 of 204 parameters) is listed as 0.46. This molecule also yielded a Rescue efficacy in assay [1] (same treatment as Effect Score, Control set at 100%, Abeta group 0%) of 54%.

B1: GDNF: glial cell-derived neurotrophic factor, neuroprotector used as reference (protein, UniProt P39905 78-211, looked up)
Glial cell line-derived …: SPDKQMAVLPRRERNRQAAAANPENSRGKGRRGQRGKNRGCVLTAIHLNVTDLGLGYETKEELIFRYCSGSCDAAETTYDKILKNLSRNRRLVSDKVGQACCRPIAFDDDLSFLDDNLVYHILRKHSAKRCGCI
On to B1, for which, in assay [2] (nanoparticles ([Au] or [Si]=800 μM; [BaTiO3]=2000 μM) or GDNF 20 ng/ml at day 7, MPP+ 20 μM at day 8, recording at day 21, Control=0, MPP+ group=1, 18 of 204 parameters), the “Effect Score” value is 0.44. The molecule further registered a Prevention/rescue efficacy in assay [2] (same treatment as Effect Score, Control set at 100%, MPP+ group 0%) of 56%.
